Results taken from the supplement of paper PMC10307832.

Assays:
Test in all cases: relative viability (nuclei count vs DMSO), 5 days (fraction); higher = more cells survive
[1] = compound: CN1CCN(CC1)C2=CC(=C(C=C2)NC3=NC=C4C(=N3)N(C5=CC=CC=C5C(=O)N4C)C)OC [XMD8-85] + COc1cccc2cc(-c3nc([C@H]4CC[C@H](C(=O)O)CC4)n4ncnc(N)c34)[nH]c12 [OSI-027] (partner 0.5 µM)
Method in brief: (§1)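 For relative viability, nuclei counts in treated wells were divided by those in vehicle wells. Lung cancer cell lines had been pin-tool dosed in 1536-well plates the day after seeding and cultured for 5 days, then fixed and stained in one step (final 0.05% Triton X-100, 1% formaldehyde, 1 ug/ml Hoechst) and imaged at 4×. Doses were one drug alone or a fixed anchor-drug dose plus five library-drug doses (not always all listed) in √10 steps, and values are duplicate-plate medians.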

[2] = compound: CN1CCN(CC1)C2=CC(=C(C=C2)NC3=NC=C4C(=N3)N(C5=CC=CC=C5C(=O)N4C)C)OC [XMD8-85] + CS(=O)(=O)N1CCN(Cc2cc3nc(-c4cccc5[nH]ncc45)nc(N4CCOCC4)c3s2)CC1 [Pictilisib] (partner 1 µM)
Method in brief: as §1

[3] = compound: O=C(O)C(Cc1ccccc1[N+](=O)[O-])=NNc1nc(-c2ccc(Cl)c(Cl)c2)cs1 (mixture of isomers) [4EGI-1] + Cc1nc(Nc2ncc(C(=O)Nc3c(C)cccc3Cl)s2)cc(N2CCN(CCO)CC2)n1 [Dasatinib] (partner 0.075 µM)
Method in brief: as §1

[4] = compound: O=C(O)C(Cc1ccccc1[N+](=O)[O-])=NNc1nc(-c2ccc(Cl)c(Cl)c2)cs1 (mixture of isomers) [4EGI-1] + CS(=O)(=O)CCNCc1ccc(-c2ccc3ncnc(Nc4ccc(OCc5cccc(F)c5)c(Cl)c4)c3c2)o1 [Lapatinib] (partner 2 µM)
Method in brief: as §1

## NCI-H1734
[1]; first compound 0.08 µM
  relative viability: 0.579
[1]; first compound 0.253 µM
  relative viability: 0.664
[1]; first compound 0.8 µM
  relative viability: 0.609
[1]; first compound 2.53 µM
  relative viability: 0.699
[1]; first compound 8 µM
  relative viability: 0.425
[2]; first compound 0.08 µM
  relative viability: 0.45
[2]; first compound 0.253 µM
  relative viability: 0.397
[2]; first compound 0.8 µM
  relative viability: 0.477
[2]; first compound 2.53 µM
  relative viability: 0.502
[2]; first compound 8 µM
  relative viability: 0.475
[3]; first compound 0.5 µM
  relative viability: 0.562
[3]; first compound 1.581 µM
  relative viability: 0.415
[3]; first compound 5 µM
  relative viability: 0.46
[3]; first compound 15.81 µM
  relative viability: 0.396
[3]; first compound 50 µM
  relative viability: 0.218
[4]; first compound 0.5 µM
  relative viability: 1.15
[4]; first compound 1.581 µM
  relative viability: 0.939
[4]; first compound 5 µM
  relative viability: 1.15
[4]; first compound 15.81 µM
  relative viability: 0.903
[4]; first compound 50 µM
  relative viability: 0.393

## NCI-H1755
[1]; first compound 0.08 µM
  relative viability: 0.677
[1]; first compound 0.253 µM
  relative viability: 0.787
[1]; first compound 0.8 µM
  relative viability: 0.645
[1]; first compound 8 µM
  relative viability: 0.531
[2]; first compound 0.08 µM
  relative viability: 0.369
[2]; first compound 0.253 µM
  relative viability: 0.426
[2]; first compound 0.8 µM
  relative viability: 0.448
[2]; first compound 2.53 µM
  relative viability: 0.552
[2]; first compound 8 µM
  relative viability: 0.357
[3]; first compound 0.5 µM
  relative viability: 0.503
[3]; first compound 1.581 µM
  relative viability: 0.428
[3]; first compound 5 µM
  relative viability: 0.424
[3]; first compound 15.81 µM
  relative viability: 0.412
[3]; first compound 50 µM
  relative viability: 0.288
[4]; first compound 0.5 µM
  relative viability: 1.06
[4]; first compound 1.581 µM
  relative viability: 1.01
[4]; first compound 5 µM
  relative viability: 0.967
[4]; first compound 15.81 µM
  relative viability: 0.883
[4]; first compound 50 µM
  relative viability: 0.284

## NCI-H1793
[1]; first compound 0.08 µM
  relative viability: 0.317
[1]; first compound 0.253 µM
  relative viability: 0.259
[1]; first compound 0.8 µM
  relative viability: 0.243
[1]; first compound 2.53 µM
  relative viability: 0.286
[1]; first compound 8 µM
  relative viability: 0.276
[2]; first compound 0.08 µM
  relative viability: 0.389
[2]; first compound 0.253 µM
  relative viability: 0.248
[2]; first compound 0.8 µM
  relative viability: 0.44
[2]; first compound 2.53 µM
  relative viability: 0.405
[2]; first compound 8 µM
  relative viability: 0.38
[3]; first compound 0.5 µM
  relative viability: 0.349
[3]; first compound 1.581 µM
  relative viability: 0.364
[3]; first compound 5 µM
  relative viability: 0.38
[3]; first compound 15.81 µM
  relative viability: 0.374
[3]; first compound 50 µM
  relative viability: 0.347
[4]; first compound 0.5 µM
  relative viability: 0.637
[4]; first compound 1.581 µM
  relative viability: 0.886
[4]; first compound 5 µM
  relative viability: 0.556
[4]; first compound 15.81 µM
  relative viability: 0.814
[4]; first compound 50 µM
  relative viability: 0.402

## NCI-H1915
[1]; first compound 0.08 µM
  relative viability: 0.622
[1]; first compound 0.253 µM
  relative viability: 0.648
[1]; first compound 0.8 µM
  relative viability: 0.651
[1]; first compound 2.53 µM
  relative viability: 0.672
[1]; first compound 8 µM
  relative viability: 0.507
[2]; first compound 0.08 µM
  relative viability: 0.985
[2]; first compound 0.253 µM
  relative viability: 0.944
[2]; first compound 0.8 µM
  relative viability: 0.936
[2]; first compound 2.53 µM
  relative viability: 1.02
[2]; first compound 8 µM
  relative viability: 0.676
[3]; first compound 0.5 µM
  relative viability: 0.358
[3]; first compound 1.581 µM
  relative viability: 0.257
[3]; first compound 5 µM
  relative viability: 0.314
[3]; first compound 15.81 µM
  relative viability: 0.311
[3]; first compound 50 µM
  relative viability: 0.163
[4]; first compound 0.5 µM
  relative viability: 0.99
[4]; first compound 1.581 µM
  relative viability: 0.747
[4]; first compound 5 µM
  relative viability: 0.954
[4]; first compound 15.81 µM
  relative viability: 1.03
[4]; first compound 50 µM
  relative viability: 0.679

## NCI-H1944
[1]; first compound 0.08 µM
  relative viability: 0.391
[1]; first compound 0.253 µM
  relative viability: 0.442
[1]; first compound 0.8 µM
  relative viability: 0.461
[1]; first compound 2.53 µM
  relative viability: 0.514
[1]; first compound 8 µM
  relative viability: 0.297
[2]; first compound 0.08 µM
  relative viability: 0.326
[2]; first compound 0.253 µM
  relative viability: 0.332
[2]; first compound 0.8 µM
  relative viability: 0.351
[2]; first compound 2.53 µM
  relative viability: 0.333
[2]; first compound 8 µM
  relative viability: 0.307
[3]; first compound 0.5 µM
  relative viability: 0.22
[3]; first compound 5 µM
  relative viability: 0.199
[3]; first compound 15.81 µM
  relative viability: 0.172
[3]; first compound 50 µM
  relative viability: 0.135
[4]; first compound 0.5 µM
  relative viability: 0.816
[4]; first compound 5 µM
  relative viability: 0.776
[4]; first compound 15.81 µM
  relative viability: 0.745
[4]; first compound 50 µM
  relative viability: 0.456

## NCI-H1975
[1]; first compound 0.08 µM
  relative viability: 0.53
[1]; first compound 0.253 µM
  relative viability: 0.678
[1]; first compound 0.8 µM
  relative viability: 0.807
[1]; first compound 2.53 µM
  relative viability: 0.762
[1]; first compound 8 µM
  relative viability: 0.445
[2]; first compound 0.08 µM
  relative viability: 0.322
[2]; first compound 0.253 µM
  relative viability: 0.257
[2]; first compound 0.8 µM
  relative viability: 0.267
[2]; first compound 2.53 µM
  relative viability: 0.29
[2]; first compound 8 µM
  relative viability: 0.242
[3]; first compound 0.5 µM
  relative viability: 0.372
[3]; first compound 1.581 µM
  relative viability: 0.363
[3]; first compound 5 µM
  relative viability: 0.302
[3]; first compound 15.81 µM
  relative viability: 0.282
[3]; first compound 50 µM
  relative viability: 0.249
[4]; first compound 0.5 µM
  relative viability: 1.05
[4]; first compound 1.581 µM
  relative viability: 0.916
[4]; first compound 5 µM
  relative viability: 0.916
[4]; first compound 15.81 µM
  relative viability: 0.93
[4]; first compound 50 µM
  relative viability: 0.287

## NCI-H1993
[1]; first compound 0.08 µM
  relative viability: 0.516
[1]; first compound 0.253 µM
  relative viability: 0.454
[1]; first compound 0.8 µM
  relative viability: 0.636
[1]; first compound 2.53 µM
  relative viability: 0.548
[1]; first compound 8 µM
  relative viability: 0.552
[2]; first compound 0.08 µM
  relative viability: 0.859
[2]; first compound 0.253 µM
  relative viability: 0.795
[2]; first compound 0.8 µM
  relative viability: 0.822
[2]; first compound 2.53 µM
  relative viability: 0.701
[2]; first compound 8 µM
  relative viability: 0.814
[3]; first compound 0.5 µM
  relative viability: 0.595
[3]; first compound 1.581 µM
  relative viability: 0.616
[3]; first compound 5 µM
  relative viability: 0.543
[3]; first compound 15.81 µM
  relative viability: 0.467
[3]; first compound 50 µM
  relative viability: 0.441
[4]; first compound 0.5 µM
  relative viability: 0.945
[4]; first compound 1.581 µM
  relative viability: 0.718
[4]; first compound 5 µM
  relative viability: 0.838
[4]; first compound 15.81 µM
  relative viability: 0.693
[4]; first compound 50 µM
  relative viability: 0.767

## NCI-H2009
[1]; first compound 0.08 µM
  relative viability: 0.589
[1]; first compound 0.253 µM
  relative viability: 0.704
[1]; first compound 0.8 µM
  relative viability: 0.638
[1]; first compound 2.53 µM
  relative viability: 0.508
[1]; first compound 8 µM
  relative viability: 0.324
[2]; first compound 0.08 µM
  relative viability: 0.753
[2]; first compound 0.253 µM
  relative viability: 0.722
[2]; first compound 0.8 µM
  relative viability: 0.892
[2]; first compound 2.53 µM
  relative viability: 0.653
[2]; first compound 8 µM
  relative viability: 0.364
[3]; first compound 0.5 µM
  relative viability: 0.344
[3]; first compound 1.581 µM
  relative viability: 0.302
[3]; first compound 5 µM
  relative viability: 0.312
[3]; first compound 15.81 µM
  relative viability: 0.269
[3]; first compound 50 µM
  relative viability: 0.146
[4]; first compound 0.5 µM
  relative viability: 1.06
[4]; first compound 1.581 µM
  relative viability: 0.879
[4]; first compound 5 µM
  relative viability: 0.962
[4]; first compound 15.81 µM
  relative viability: 0.744
[4]; first compound 50 µM
  relative viability: 0.177
